Results on 40 molecules are retold here after US7365080B2, “Pharmaceutical compositions comprising thieno[2,3-c]pyridine derivatives and use thereof” (Rimonyx Pharmaceuticals Ltd., priority 2003, dated 2008).

The IC50 is the midpoint of a concentration-inhibition curve. As a reminder, the inhibition is the change of the read-out against control, counted positive when it falls.

SMILES strings stand for the structures.

In the first test the target is T1, L-Selectin (Homo sapiens, UniProt P14151).
T1 construct: purchased Research and Development Systems 728-LS
T1 sequence (P14151 39-332 limits assumed): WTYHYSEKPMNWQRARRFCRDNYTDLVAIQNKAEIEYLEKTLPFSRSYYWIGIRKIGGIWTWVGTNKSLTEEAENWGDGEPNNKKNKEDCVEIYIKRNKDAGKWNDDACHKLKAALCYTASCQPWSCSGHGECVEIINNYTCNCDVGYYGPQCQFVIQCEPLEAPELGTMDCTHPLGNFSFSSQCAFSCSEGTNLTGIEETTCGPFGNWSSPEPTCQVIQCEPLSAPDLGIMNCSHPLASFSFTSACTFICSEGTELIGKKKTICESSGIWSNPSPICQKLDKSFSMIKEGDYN
Put plainly: ELISA: inhibition of L-selectin/IgG binding to immobilized heparin (Heparin-BSA). Conditions: L-Selectin binding to heparin. The method, then: The inhibitory effect of the compounds of the present invention can be evaluated by several methods in vitro. One assay for measuring GAG-ECAM binding, exemplified herein below, detects the binding of L selectin/IgG to immobilized heparin. Another assay utilizes immobilized L-selectin, or L-selectin fused to protein domains other than IgG. The amount of bound L-selectin is determined by an ELISA assay using, for example, a monoclonal antibody raised against L-selectin, which is conjugated to horseradish peroxidase. […] The Dregg-55 antibody was also shown to inhibit L-selectin-dependent adhesion in vitro, neutrophil accumulation in vitro and inflammation in vivo (Co M. S. et al, Immunotechnology 493: 253-266, 1999).
An in vitro assay was used to assess the ability of test compounds according to formula I to inhibit the interactions of L-selectin with HS-GAGs. The assay was suitable for determining the concentration required for 50% inhibition (IC-50) for each specific compound. In the assay, the GAG used was heparin. Thus, porcine intestinal mucosa heparin conjugated to Bovine Serum Albumin (Heparin-BSA; Sigma Cat. No. H0403) at […] in Phosphate Buffered Saline (PBS; pH 6.5) was added to a 96 well polystyrene ELISA plate (NUNC Cat. No. 442404; 0.1 ml per well) and incubated Over Night (ON) at 4° C. Following the incubation, the plate was washed thoroughly, by immersion, with de-ionized water and PBS (pH 6.5). The ELISA plate was then blocked with BSA (ICN Cat. No.160069, 3%, 200 μl per well) for 1 hour at Room Temperature (RT). Following blocking, the plate was washed with de-ionized water, and then with PBS (pH 6.5) containing Tween 20 (Sigma Cat. No. P-1379, 0.05%). Compounds were synthesized or purchased from ChemDiv Labs (San Diego, Calif.), dissolved in DMSO, diluted in PBS and added to the wells at various concentrations in the range of 0.01 to 300 μM. Recombinant Human L-Selectin/IgG (Research and Development Systems Cat. No.728-LS) dissolved in PBS supplemented with BSA (0.1%) and calcium chloride (1 mM) was added to the ELISA plate (100 μl per well) and incubated for 60 minutes at RT with shaking. Following incubation, the plate was washed with de-ionized water and three times with PBS (pH 6.5) containing Tween 20. Anti-Human IgG Peroxidase Conjugate (1:5000; Sigma Product No. A8667) diluted in PBS supplemented with BSA (0.1%) and calcium chloride (1 mM) was added to the ELISA plate (100 μl per well) and incubated for 30 minutes at RT with shaking. The plate was then washed with de-ionized water and three times with PBS (pH 6.5) containing Tween 20. The peroxidase substrate cromogen, TMB (Dako Cat. No. S1599) was added (100 μl per well) to the ELISA plate and incubated at room temperature. After 15 minutes ELISA Stop Solution (hydrochloric acid 1N, sulfuric acid 3N) was added (200 μl per well) to stop the peroxidase catalyzed colorimetric reaction. The Optical Density (OD) of the samples was measured at 450 nm using an ELISA plate reader (Dynatech MR5000). Data were analyzed with Graphpad Prism software and IC-50 values were established. The P-selectin assay was carried out in a similar fashion, except that Recombinant Human P-Selectin/IgG (Research and Development Systems Cat.No.137-PS) was used.
A general note: An ELISA detects its analyte on a solid surface through an enzyme-linked reagent.
Molecule `CCN(CC)S(=O)(=O)c1ccc(C(=O)Nc2sc3c(c2-c2nc4ccccc4s2)CCN(C(C)C)C3)cc1` [Compound 3] gave an IC50 of 10 µM. `CC(C)N1CCc2c(sc(NC(=O)c3ccc(S(=O)(=O)N4CCOCC4)cc3)c2-c2nc3ccccc3s2)C1` [Compound 10] displayed an IC50 of 25 µM. In turn, `CCOC(=O)c1c(NC(=O)c2ccc(S(=O)(=O)N3CCCc4ccccc43)cc2)sc2c1CCN(C(C)C)C2` [Compound 16] displayed an IC50 of 11 µM.

Turning to `CCOC(=O)c1c(NC(=O)c2ccc(S(=O)(=O)N3CCCCCC3)cc2)sc2c1CC(C)(C)NC2(C)C` [Compound 18], the IC50 was 11 µM.

As for `C=CCN(CC=C)S(=O)(=O)c1ccc(C(=O)Nc2sc3c(c2C(=O)OC)CC(C)(C)NC3(C)C)cc1` [Compound 19], the IC50 is 43 µM. Turning to `CCOC(=O)c1c(NC(=O)c2ccc(S(=O)(=O)N(CC)CC)cc2)sc2c1CC(C)(C)NC2(C)C` [Compound 20], the IC50 turned out to be 26 µM. Molecule `CN(C1CCCCC1)S(=O)(=O)c1ccc(C(=O)Nc2sc3c(c2C(N)=O)CC(C)(C)NC3(C)C)cc1` [Compound 21] displayed a half-inhibitory concentration (IC50) of 36 µM.

Take `CCN1CCc2c(sc(NC(=O)c3ccc(S(=O)(=O)N(C)c4ccccc4)cc3)c2C(=O)NC)C1` [Compound 27]: the concentration for half-maximal inhibition (IC50) stood at 9 µM.

Staying with this test, now noted: L-Selectin binding to heparin; 50 μM.
For `CCN(CC)S(=O)(=O)c1ccc(C(=O)Nc2sc3c(c2-c2nc4ccccc4s2)CCN(C)C3)cc1` [Compound 2], the inhibition at 50 µM stood at 60%. The molecule `COCCN(CCOC)S(=O)(=O)c1ccc(C(=O)Nc2sc3c(c2-c2nc4ccccc4s2)CCN(C)C3)cc1` [Compound 4] yielded an inhibition at 50 µM of 43%. As for `CN1CCc2c(sc(NC(=O)c3ccc(S(=O)(=O)N(C)c4ccccc4)cc3)c2-c2nc3ccccc3s2)C1` [Compound 6], testing at 50 µM gave an inhibition of 44%. Still for that read-out and setting: with `CCN1CCc2c(sc(NC(=O)c3ccc(S(=O)(=O)N4CCCCCC4)cc3)c2-c2nc3ccccc3s2)C1` [Compound 8] the figure was 46%; with `CN1CCc2c(sc(NC(=O)c3ccc(S(=O)(=O)N4CCOCC4)cc3)c2-c2nc3ccccc3s2)C1` [Compound 9], 52%; with `CCCCN(CC)S(=O)(=O)c1ccc(C(=O)Nc2sc3c(c2C(N)=O)CCN(C(C)C)C3)cc1` [Compound 12], 55%.

For `CC(C)N1CCc2c(sc(NC(=O)c3ccc(S(=O)(=O)N(C)c4ccccc4)cc3)c2C(N)=O)C1` [Compound 13], at 50 µM the inhibition was 68%.

The molecule `CC1CC(C)CN(S(=O)(=O)c2ccc(C(=O)Nc3sc4c(c3C(N)=O)CCN(C(C)C)C4)cc2)C1` (stereo not shown) [Compound 14] showed an inhibition at 50 µM of 35%. The same measure, in the same setting: with `CCCCN(C)S(=O)(=O)c1ccc(C(=O)Nc2sc3c(c2C(=O)OCC)CCN(C(C)C)C3)cc1` [Compound 15] the figure was 40%; with `CCOC(=O)c1c(NC(=O)c2ccc(S(=O)(=O)N3CCN(C(=O)OCC)CC3)cc2)sc2c1CCN(C(C)C)C2` [Compound 17], 21%.

`CCN(CC)S(=O)(=O)c1ccc(C(=O)Nc2sc3c(c2C(N)=O)CC(C)(C)NC3(C)C)cc1` [Compound 22] displayed an inhibition at 50 µM of 35%. `CCCCN(C)S(=O)(=O)c1ccc(C(=O)Nc2sc3c(c2C(N)=O)CC(C)(C)NC3(C)C)cc1` [Compound 23] yielded an inhibition at 50 µM of 39%. `CCOC(=O)N1CCN(S(=O)(=O)c2ccc(C(=O)Nc3sc4c(c3C(N)=O)CC(C)(C)NC4(C)C)cc2)CC1` [Compound 24] registered an inhibition at 50 µM of 29%. In the case of `COCCN(CCOC)S(=O)(=O)c1ccc(C(=O)Nc2sc3c(c2C(N)=O)CC(C)(C)NC3(C)C)cc1` [Compound 26], 50 µM produced 23% inhibition. In turn, `CCN1CCc2c(sc(NC(=O)c3ccc(S(=O)(=O)N(CC)Cc4ccccc4)cc3)c2C(N)=O)C1` [Compound 28, 2-[[4-[[ethyl(phenylmethyl)amino]sulfonyl]benzoyl]amino]-6-ethyl-4,5,6,7-tetrahydrothieno[2,3-c]pyridine-3-carboxamide] displayed an inhibition at 50 µM of 63%. Consider `CCN1CCc2c(sc(NC(=O)c3ccc(S(=O)(=O)N4CCN(C)CC4)cc3)c2C(N)=O)C1` [Compound 29, 2-[[4-[(4-methyl-1-piperazinyl)sulfonyl]benzoyl]amino]-6-ethyl-4,5,6,7-tetrahydrothieno[2,3-c]pyridine-3-carboxamide], for which at 50 µM the inhibition was 30%. Same read-out and setting: with `CCCN(CCC)S(=O)(=O)c1ccc(C(=O)Nc2sc3c(c2-c2nc4ccccc4s2)CCN(C)C3)cc1` [Compound 30] the figure was 21%; with `CCCCN(CCCC)S(=O)(=O)c1ccc(C(=O)Nc2sc3c(c2-c2nc4ccccc4s2)CCN(C)C3)cc1` [Compound 31], 27%.

Consider `CCCCN(C)S(=O)(=O)c1ccc(C(=O)Nc2sc3c(c2-c2nc4ccccc4s2)CCN(C)C3)cc1` [Compound 32], for which the inhibition at 50 µM is 26%. The molecule `CCCCN(CC)S(=O)(=O)c1ccc(C(=O)Nc2sc3c(c2-c2nc4ccccc4s2)CCN(C)C3)cc1` [Compound 33] yielded an inhibition at 50 µM of 21%.

The molecule `C=CCN(CC=C)S(=O)(=O)c1ccc(C(=O)Nc2sc3c(c2-c2nc4ccccc4s2)CCN(C)C3)cc1` [Compound 34] returned an inhibition at 50 µM of 25%. In the case of `CN1CCc2c(sc(NC(=O)c3ccc(S(=O)(=O)N4CCCC4)cc3)c2-c2nc3ccccc3s2)C1` [Compound 35], the inhibition at 50 µM worked out at 24%. With `CN1CCc2c(sc(NC(=O)c3ccc(S(=O)(=O)N4CCCCC4)cc3)c2-c2nc3ccccc3s2)C1` [Compound 36], the inhibition at 50 µM was found to be 26%.

In the case of `CC1CCCN(S(=O)(=O)c2ccc(C(=O)Nc3sc4c(c3-c3nc5ccccc5s3)CCN(C)C4)cc2)C1` (stereo not shown) [Compound 37], at 50 µM the inhibition was 23%.

In the case of `CC1CCN(S(=O)(=O)c2ccc(C(=O)Nc3sc4c(c3-c3nc5ccccc5s3)CCN(C)C4)cc2)CC1` [Compound 38], at 50 µM the inhibition was 33%.

`CC1CC(C)CN(S(=O)(=O)c2ccc(C(=O)Nc3sc4c(c3-c3nc5ccccc5s3)CCN(C)C4)cc2)C1` (stereo not shown) [Compound 39] had an inhibition at 50 µM of 24%. Molecule `CCCN(CCC)S(=O)(=O)c1ccc(C(=O)Nc2sc3c(c2-c2nc4ccccc4s2)CCN(CC)C3)cc1` [Compound 40] returned an inhibition at 50 µM of 25%. `C=CCN(CC=C)S(=O)(=O)c1ccc(C(=O)Nc2sc3c(c2-c2nc4ccccc4s2)CCN(CC)C3)cc1` [Compound 41] returned an inhibition at 50 µM of 25%. In turn, `CCCCN(CC)S(=O)(=O)c1ccc(C(=O)Nc2sc3c(c2-c2nc4ccccc4s2)CCN(C(C)C)C3)cc1` [Compound 42] returned an inhibition at 50 µM of 27%.

`C=CCN(CC=C)S(=O)(=O)c1ccc(C(=O)Nc2sc3c(c2-c2nc4ccccc4s2)CCN(C(C)C)C3)cc1` [Compound 43] showed an inhibition at 50 µM of 17%.

As for `CC(C)N1CCc2c(sc(NC(=O)c3ccc(S(=O)(=O)N4CCCCC4)cc3)c2-c2nc3ccccc3s2)C1` [Compound 44], the inhibition at 50 µM was 29%. The same measure, in the same setting: in the case of `CC(C)N1CCc2c(sc(NC(=O)c3ccc(S(=O)(=O)N4CCCCC4C)cc3)c2-c2nc3ccccc3s2)C1` (stereo not shown) [Compound 45] it was 24%.
